Experimental data as given in ChEMBL document CHEMBL1212815, “Quinolines and structurally related heterocycles as antimalarials” (Eur J Med Chem, 2010).
In brackets after ≈: the same amount, converted by molar mass. Blank lines part the entries; values can stand above or below the compound they belong to. Activity calls are given as the source filed them. The calls are words filed in the database; no cut-off is given here.

Columns and labels:
Plasmodium falciparum [1] = assay: Antimalarial activity against chloroquine-sensitive Plasmodium falciparum; type: functional, organism-based
Plasmodium berghei [2] = assay: Antiplasmodial activity against Plasmodium berghei infected in perorally dosed mice (Mus musculus); type: functional, organism-based
Plasmodium falciparum [3] = assay: Antimalarial activity against chloroquine-resistant Plasmodium falciparum HB3; type: functional, organism-based
Plasmodium falciparum [4] = assay: Antimalarial activity against chloroquine-resistant Plasmodium falciparum Dd2; type: functional, organism-based
[5] = Toxicity in mouse assessed as maximum tolerated dose; type: organism-based; conditions: in vivo, read-out: Activity
Plasmodium falciparum [6] = assay: Antimalarial activity against chloroquine-resistant Plasmodium falciparum K1; type: functional, organism-based
Plasmodium falciparum [7] = assay: Antimalarial activity against Plasmodium falciparum FAC8; type: functional, organism-based
Plasmodium berghei [8] = assay: Antiplasmodial activity against Plasmodium berghei infected in mice (Mus musculus) assessed as suppression of parasitaemia at 100 mg/kg, po; type: functional
Plasmodium falciparum [9] = assay: Antimalarial activity against chloroquine-resistant Plasmodium falciparum; type: functional, organism-based
Plasmodium chabaudi = assay: Antiplasmodial activity against Plasmodium chabaudi infected in mice (Mus musculus) assessed as reduction in parasitaemia measured at 50 mg/kg, perorally daily for 4 days; type: functional, organism-based; set-up: dose 50 mg/kg
Plasmodium falciparum [10] = assay: Antimalarial activity against Plasmodium falciparum; type: functional, organism-based
[11] = Inhibition of Plasmodium falciparum DHFR
Plasmodium falciparum [12] = assay: Selectivity index, ratio of IC50 for Plasmodium falciparum D6 to IC50 for Plasmodium falciparum W2; type: functional
[13] = Inhibition of Plasmodium falciparum protein farnesyltransferase
Plasmodium falciparum [14] = assay: Antimalarial activity against chloroquine-resistant Plasmodium falciparum 3D7; type: functional, organism-based; conditions: read-out: ED50 (the source's name)
Plasmodium falciparum [15] = assay: Antimalarial activity against chloroquine-resistant Plasmodium falciparum W2; type: functional, organism-based
Plasmodium falciparum [16] = assay: Antimalarial activity against chloroquine-resistant Plasmodium falciparum FcB1; type: functional, organism-based; conditions: FcB1/Columbia
Plasmodium vinckei = assay: Antiplasmodial activity against Plasmodium vinckei infected in mice (Mus musculus) assessed as reduction in parasitemia measured per day for 4 days; type: functional; conditions: 96 h
[17] = Inhibition of Plasmodium falciparum falcipain-2
[18] = Dissociation constant, pKa of the compound; type: physicochemical
Plasmodium falciparum [19] = assay: Antimalarial activity against chloroquine-resistant Plasmodium falciparum D10; type: functional, organism-based
Plasmepsin II = Plasmepsin II (Plasmodium falciparum, UniProt P46925); assay: Inhibition of Plasmodium falciparum plasmepsin-2
Plasmepsin II, sequence (P46925 whole entry): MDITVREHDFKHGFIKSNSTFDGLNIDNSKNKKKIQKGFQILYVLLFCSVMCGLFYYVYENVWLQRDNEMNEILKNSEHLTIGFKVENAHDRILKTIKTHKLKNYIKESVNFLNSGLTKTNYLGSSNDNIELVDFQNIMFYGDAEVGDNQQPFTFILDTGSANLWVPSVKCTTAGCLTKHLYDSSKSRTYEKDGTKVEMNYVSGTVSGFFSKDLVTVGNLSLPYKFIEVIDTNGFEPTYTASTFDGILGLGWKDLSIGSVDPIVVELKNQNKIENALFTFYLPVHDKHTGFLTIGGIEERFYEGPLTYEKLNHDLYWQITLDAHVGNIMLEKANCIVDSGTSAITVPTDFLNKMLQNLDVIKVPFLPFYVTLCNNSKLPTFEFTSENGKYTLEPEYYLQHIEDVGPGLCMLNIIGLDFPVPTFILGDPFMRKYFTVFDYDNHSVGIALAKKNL

SMILES: Clc1ccc2c(N3CCN(CCCN4CCN(c5ccnc6cc(Cl)ccc56)CC4)CC3)ccnc2c1 [PIPERAQUINE]
IC50 (Plasmodium falciparum [1]): 36 nM

IC50 (Plasmodium berghei [2]; Plasmodium berghei): 18.1 nM
SMILES: CCN(CC)Cc1cc(N)cc(Nc2ccnc3cc(Cl)ccc23)c1

SMILES: CCN(CCNc1ccnc2cc(Cl)ccc12)CCNS(=O)(=O)c1ccc2c(N(C)C)cccc2c1
IC50 (Plasmodium falciparum [3]): 17.5 nM | IC50 (Plasmodium falciparum [4]): 22.7 nM

SMILES: Clc1ccc2c(NCCNCC3CCC4(CC3)OOC3(CCCCC3)OO4)ccnc2c1
Activity (Plasmodium berghei [2]): 80 mg/kg | MTD [5]: > 960 mg/kg

SMILES: CCN(CC)Cc1ccc(Nc2ccnc3cc(Cl)ccc23)cc1O [ISOQUINE]
IC50 (Plasmodium falciparum [6]): 6.01 nM

IC50 (Plasmodium falciparum [7]): 120 nM
SMILES: CCN(CC)CCCC(C)Nc1ccnc2c(NC(=O)CCCCC(=O)Nc3cccc4c(NC(C)CCCN(CC)CC)ccnc34)cccc12 (stereo not given)

SMILES: CC(C)(C)NCc1cc(Nc2ccnc3cc(Cl)ccc23)ccc1F
ED50 (Plasmodium berghei [2]; Plasmodium berghei): 5.3 mg/kg

SMILES: COc1cc(NC(C)CCCN)c2nc(C(C)(C)C)ccc2c1 (stereo not given)
Activity (Plasmodium berghei [8]): 100%

SMILES: O=C(CN(CCCNc1ccnc2cc(Cl)ccc12)C(=O)c1ccncc1)NC1CCCCC1
IC50 (Plasmodium falciparum [9]): 73 nM

SMILES: O=C(NCCNc1ccnc2cc(Cl)ccc12)C1CCC2(CC1)OOC1(CCCCC1)OO2
Activity (Plasmodium berghei [2]): 80 mg/kg | MTD [5]: > 960 mg/kg

SMILES: Clc1cccc(C(Nc2ccnc3cc(Cl)ccc23)c2ccc(CN3CCCC3)cc2)c1 (stereo not given)
Activity (Plasmodium chabaudi): Active

IC50 (Plasmodium falciparum [10]; Plasmodium falciparum): 19000 nM
SMILES: COc1cc2cc(/C=C/C(=O)c3ccc(Cl)cc3Cl)c(Cl)nc2cc1OC

IC50 (Plasmodium falciparum [10]; Plasmodium falciparum): 2.9 µg/mL | IC90 (Plasmodium falciparum [10]; Plasmodium falciparum): 6.5 µg/mL (≈ 19.1 µM)
SMILES: N=C(N)c1ccc(OCCCCCOc2ccc(C(=N)N)cc2)cc1 [PENTAMIDINE]

IC50 (Plasmodium falciparum [10]; Plasmodium falciparum): 2.56 µg/mL
SMILES: CCOC(=O)c1c(CN2CCCCC2)nc2ccc(Cl)cc2c1-c1ccccc1

SMILES: Clc1ccc2c(NCC[C@H]3CCN4CCCC[C@@H]4C3)ccnc2c1
IC50 (Plasmodium falciparum [9]): 21 nM

IC50 [11]: 0.0004 µg/mL (≈ 0.000972 µM)
SMILES: Cc1cc(NC(=O)c2ccco2)c2cc(NC(=O)Nc3cccc(C#N)c3)ccc2n1

SMILES: O=C1c2ccccc2SCN1CCNc1ccnc2cc(Cl)ccc12
IC50 (Plasmodium falciparum [9]): 13 nM

SMILES: CN1CC2CCC1C(CNc1ccnc3cc(Cl)ccc13)C2 (stereo not given)
Ratio IC50 (Plasmodium falciparum [12]): >1200

MIC (Plasmodium falciparum [10]; Plasmodium falciparum): 2 µg/mL (≈ 4.4 µM)
SMILES: CN(CC(O)CNCc1ccc(Cl)c(Cl)c1)S(=O)(=O)c1cccc2cnccc12 (stereo not given)

SMILES: Cn1cnc(S(=O)(=O)N(Cc2ccccc2)C2Cc3cc(C#N)ccc3N(Cc3cncn3C)C2)c1 (stereo not given)
IC50 [13]: 0.6 nM | EC50 (Plasmodium falciparum [14]): 5 nM

SMILES: Clc1ccc2c(N3CCN(Cc4ccccc4Br)CC3)ccnc2c1
IC50 (Plasmodium falciparum [9]): 11400 nM

SMILES: CCC(=O)CCCCC[C@@H]1NC(=O)[C@H]2CCCCN2C(=O)[C@H]([C@H](C)CC)NC(=O)[C@H](c2c[nH]c3ccccc3c2=O)NC1=O
IC50 (Plasmodium falciparum [1]): 0.04 µg/mL | IC50 (Plasmodium falciparum [9]): 0.04 µg/mL

SMILES: Clc1ccc2c(N3CCNCC3)ccnc2c1
IC50 (Plasmodium falciparum [1]): 1020 nM | IC50 (Plasmodium falciparum [9]): 1020 nM

SMILES: Clc1ccc2c(N[C@H]3CCN4CCCC[C@@H]4C3)ccnc2c1
IC50 (Plasmodium falciparum [9]): 21 nM | IC50 (Plasmodium falciparum [15]): 23.3 nM

SMILES: O=C1CSC(c2c(Cl)cccc2Cl)N1CCNc1ccnc2cc(Cl)ccc12 (stereo not given)
IC50 (Plasmodium falciparum [9]): 13 nM

IC50 (Plasmodium berghei [2]; Plasmodium berghei): 1.39 µg/mL
SMILES: OC1(C(F)(F)F)CC(c2ccc(Cl)cc2)=NN1c1ccnc2cc(Cl)ccc12 (stereo not given)

SMILES: CC(C)C1=C[C@H]2OC3(CCC(NCCNc4ccnc5cc(Cl)ccc45)CC3)OO[C@@]2(C)CC1.O=C(O)CC(O)(CC(=O)O)C(=O)O (stereo not given in full)
IC50 (Plasmodium falciparum [16]): 15 nM | ED50 (Plasmodium vinckei): 5 mg/kg

IC50 [17]: 17700 nM
SMILES: CC1(C(=O)NC2CCCCC2)CCCC(=O)N1CCCCCCNc1ccnc2cc(Cl)ccc12 (stereo not given)

SMILES: C1CC2CCC1CN2 [ISOQUINUCLIDINE]
pKa [18]: 11

SMILES: COc1cc2cc(/C=C3\CCc4c(OC)cccc4C3=O)c(Cl)nc2cc1OC
inhibition (INH) (Plasmodium falciparum [10]): 50%

SMILES: CN(C)CCCN(CCCN(C)C)CCCN1c2ccccc2Sc2ccc(Cl)cc21
IC50 (Plasmodium falciparum [19]): 120 nM

SMILES: Clc1ccc2c(NCCC[C@H]3CCN4CCCC[C@@H]4C3)ccnc2c1
IC50 (Plasmodium falciparum [9]): 21 nM

IC50 [11]: 0.0004 µg/mL (≈ 0.000798 µM)
SMILES: Cc1cc(NC(=O)CN2CCN(C)CC2)c2cc(NC(=O)Nc3cc(Cl)cc(Cl)c3)ccc2n1

SMILES: CCCCCOc1c(OC)cc(NC(C)CCCN)c2nccc(CC)c12 (stereo not given)
IC50 (Plasmodium falciparum [1]): 0.0094 µg/mL | IC50 (Plasmodium falciparum [9]): 0.0097 µg/mL

IC50 (Plasmodium berghei [2]; Plasmodium berghei): 1.06 µg/mL
SMILES: OC1(C(F)(F)F)CC(c2ccccc2)=NN1c1ccnc2cc(Cl)ccc12 (stereo not given)

IC50 (Plasmodium falciparum [10]; Plasmodium falciparum): 4.47 µg/mL
SMILES: CCOC(=O)c1c(C)nc2ccc(Cl)cc2c1-c1ccccc1

IC50 (Plasmepsin II): 0.59 nM
SMILES: CCCCNC(=O)C[C@H](O)[C@H](CC(C)C)NC(=O)[C@@H](NC(=O)c1ccc(Oc2ccc(C(=O)N[C@@H](CC(C)C)C(=O)N[C@@H](CCCCN)C(=O)NCCCC(C)Nc3cc(OC)cc4cccnc34)cc2)cc1)[C@@H](C)CC (stereo not given in full)

SMILES: Clc1ccc2c(NC[C@H]3CCN4CCCC[C@@H]4C3)ccnc2c1
IC50 (Plasmodium falciparum [9]): 21 nM

SMILES: O=C1CCSC(c2ccc(Cl)cc2)N1CCCNc1ccnc2cc(Cl)ccc12 (stereo not given)
IC50 (Plasmodium falciparum [9]): 13 nM

IC50 (Plasmodium berghei [2]; Plasmodium berghei): 1.39 µg/mL
SMILES: OC1(C(F)(F)F)CC(c2ccc(Br)cc2)=NN1c1ccnc2cc(Cl)ccc12 (stereo not given)
